Key:
[1] = target: T1, Human PDGFRβ, cytoplasmic domain (GST-PDGFRβ) (Homo sapiens, UniProt P09619); assay: Human PDGFRβ biochemical inhibition assay (off-chip Mobility Shift Assay)
T1 construct: made in house
Protocol: Human PDGFRβ Biochemical Inhibition Assay
The compounds described herein were tested for the ability to inhibit activity of PDGFRβ which was achieved via use of an off-chip Mobility Shift Assay (MSA). Human PDGFRβ, cytoplasmic domain [557-1106 (end) amino acids of accession number NP_002600.1 (SEQ ID NO: 3)] was expressed as N-terminal GST-fusion protein (88 kDa) using baculovirus expression system (SEQ ID NO: 4). GST-PDGFRβ was purified by using glutathione sepharose chromatography. Test compounds were dissolved in and diluted with dimethylsulfoxide (DMSO) to achieve 1 mM concentration. Then the solution was further diluted 25-fold with assay buffer to make the final test compound solution. The reference compound, Staurosporine, used as the assay positive control was prepared similarly. The 4× compound solution/substrate (CSKtide, 1000 nM)/ATP (Km ATP)/Mg Metal (5 mM) was prepared with kit buffer (20 mM HEPES, 0.01% Triton X-100, 5 mM DTT, pH 7.5), and 2× kinase solution was prepared with assay buffer (20 mM HEPES, 0.01% Triton X-100, 1 mM DTT, pH 7.5). The 5 μL of 4× compound solution, […] of 4× Substrate/ATP/Metal solution, and […] of 2× kinase solution were mixed and incubated in a well of polypropylene 384 well microplate for 1 hour at room temperature. […] of Termination Buffer (QuickScout Screening Assist MSA; Carna Biosciences) was added to the well. The reaction mixture was applied to LabChip™ system (Perkin Elmer), and the product and substrate peptide peaks were separated and quantitated. The kinase reaction was evaluated by the product ratio calculated from peak heights of product(P) and substrate(S) peptides (P/(P+S)). The readout value of reaction control (complete reaction mixture) was set as a 0% inhibition, and the readout value of background (Enzyme(−)) was set as a 100% inhibition, then the percent inhibition of each test solution was calculated.
With respect to PDGFRβ activity: “+++” denotes an IC50 of less than 300 nM; “++” denotes an IC50 of from 300 nM to less than 1000 nM; and “+” denotes an IC50 of 1000 nM or more.

[2] = target: T2, Human PDGFRα, cytoplasmic domain (GST-PDGFRα) (Homo sapiens, UniProt P16234); assay: Human PDGFRα biochemical inhibition assay (off-chip Mobility Shift Assay)
T2 construct: made in house
T2 sequence (P16234 550-1089 T674I): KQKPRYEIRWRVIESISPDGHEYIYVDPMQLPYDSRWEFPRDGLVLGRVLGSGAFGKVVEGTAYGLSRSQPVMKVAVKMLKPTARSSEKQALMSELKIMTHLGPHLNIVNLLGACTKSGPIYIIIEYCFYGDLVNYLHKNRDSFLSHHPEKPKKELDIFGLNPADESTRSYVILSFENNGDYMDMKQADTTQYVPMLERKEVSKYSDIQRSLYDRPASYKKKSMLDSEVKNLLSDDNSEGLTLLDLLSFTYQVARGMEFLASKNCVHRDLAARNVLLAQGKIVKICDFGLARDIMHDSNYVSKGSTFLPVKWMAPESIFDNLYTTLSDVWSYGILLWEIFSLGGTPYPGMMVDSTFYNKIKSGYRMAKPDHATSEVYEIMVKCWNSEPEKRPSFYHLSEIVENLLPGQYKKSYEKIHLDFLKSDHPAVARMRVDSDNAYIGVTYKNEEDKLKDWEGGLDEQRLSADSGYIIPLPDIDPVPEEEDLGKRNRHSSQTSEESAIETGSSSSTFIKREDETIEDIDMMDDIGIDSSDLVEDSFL

T1 sequence (P09619 with tags, fused parts or gaps): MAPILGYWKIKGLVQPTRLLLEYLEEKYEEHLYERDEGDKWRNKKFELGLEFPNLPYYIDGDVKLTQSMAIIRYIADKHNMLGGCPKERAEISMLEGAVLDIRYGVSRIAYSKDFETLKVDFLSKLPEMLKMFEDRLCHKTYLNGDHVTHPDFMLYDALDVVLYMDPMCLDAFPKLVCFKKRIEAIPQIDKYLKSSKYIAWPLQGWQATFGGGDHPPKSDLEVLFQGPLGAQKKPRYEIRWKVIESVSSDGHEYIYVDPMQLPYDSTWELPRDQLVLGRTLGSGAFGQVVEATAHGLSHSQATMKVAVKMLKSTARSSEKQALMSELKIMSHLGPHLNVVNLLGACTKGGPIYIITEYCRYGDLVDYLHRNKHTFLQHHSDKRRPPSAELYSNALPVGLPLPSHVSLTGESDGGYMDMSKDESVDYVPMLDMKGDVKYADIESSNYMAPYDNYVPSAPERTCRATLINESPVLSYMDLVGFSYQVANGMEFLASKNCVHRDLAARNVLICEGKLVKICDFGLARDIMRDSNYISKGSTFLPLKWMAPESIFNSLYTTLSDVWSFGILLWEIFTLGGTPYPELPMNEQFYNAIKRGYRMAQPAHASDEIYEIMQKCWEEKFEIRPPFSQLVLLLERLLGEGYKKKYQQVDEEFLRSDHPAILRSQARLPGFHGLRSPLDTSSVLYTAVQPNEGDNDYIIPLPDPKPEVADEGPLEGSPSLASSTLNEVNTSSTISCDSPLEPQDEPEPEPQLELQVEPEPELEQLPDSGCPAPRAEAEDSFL

Compound | IC50 [1] [nM] | IC50 [2] [nM]
Cc1n[nH]c2ncc(N[C@@H](C)c3cccc(NC(=O)c4cnc(C(F)(F)F)s4)c3)nc12 [Compound 540, (S)-N-(3-(1-((3-methyl-1H-pyrazolo[3,4-b]pyrazin-5-yl)amino)ethyl)phenyl)-2-(trifluoromethyl)thiazole-5-carboxamide] | < 300 | < 300
COc1ccc2ncc(N[C@@H](C)c3cccc(NC(=O)c4cncc(C)c4)c3)nc2c1 [Compound 32, (S)-N-(3-(1-((7-methoxyquinoxalin-2-yl)amino)ethyl)phenyl)-5-methylnicotinamide] | < 300 | < 300
Cc1cncc(C(=O)Nc2cc(F)cc(C(C)Nc3cnc4cnn(C)c4n3)c2)c1 (stereo not shown) [Compound 170, N-(3-fluoro-5-(1-((1-methyl-1H-pyrazolo[3,4-b]pyrazin-6-yl)amino)ethyl)phenyl)-5-methylnicotinamide] | 300 to 1000 | < 300
CC(C)c1cc(C(=O)Nc2cccc([C@H](C)Nc3cnc4cnn(C)c4n3)c2)n[nH]1 [Compound 161, (S)-5-isopropyl-N-(3-(1-((1-methyl-1H-pyrazolo[3,4-b]pyrazin-6-yl)amino)ethyl)phenyl)-1H-pyrazole-3-carboxamide] | < 300 | < 300
Cc1cc2ncc(N[C@@H](C)c3cccc(NC(=O)c4ccc(C5CC5)nc4)c3)nc2s1 [Compound 610, (S)-6-cyclopropyl-N-(3-(1-((6-methylthieno[2,3-b]pyrazin-3-yl)amino)ethyl)phenyl) nicotinamide] | < 300 | < 300
CCn1cc2ncc(N[C@@H](C)c3cccc(NC(=O)c4cncc(C)c4)c3)cc2n1 [Compound 11, (S)—N-(3-(1-((2-ethyl-2H-pyrazolo[4,3-b]pyridin-6-yl)amino)ethyl)phenyl)-5-methylnicotinamide] | < 300 | < 300
Cc1cncc(C(=O)Nc2cccc([C@H](C)Nc3cnc4ccsc4n3)c2)c1 [Compound 607] | < 300 | < 300
CSc1ccc(C(=O)Nc2cccc([C@H](C)Nc3cnc4cnn(C)c4n3)c2)cc1 [Compound 219, (S)-N-(3-(1-((1-methyl-1H-pyrazolo[3,4-b]pyrazin-6-yl)amino)ethyl)phenyl)-4-(methylthio)benzamide] | < 300 | < 300
C[C@H](Nc1cnc2cn[nH]c2n1)c1cccc(NC(=O)c2cncc(CO)c2)c1 [Compound 92, (S)-N-(3-(1-((1H-pyrazolo[3,4-b]pyrazin-6-yl)amino)ethyl)phenyl)-5-(hydroxymethyl) nicotinamide] | ≥ 1000 | < 300
C[C@H](Nc1cnc2cnn(C)c2n1)c1cccc(NC(=O)c2ccc3c(c2)CCC(=O)O3)c1 [Compound 72, (S)-N-(3-(1-((1-methyl-1H-pyrazolo[3,4-b]pyrazin-6-yl)amino)ethyl)phenyl)-2-oxochromane-6-carboxamide] | < 300 | < 300
Cc1cncc(C(=O)Nc2cccc([C@H](C)Nc3cnc4cnn(C5COC5)c4n3)c2)c1 [Compound 179, (S)-5-methyl-N-(3-(1-((1-(oxetan-3-yl)-1H-pyrazolo[3,4-b]pyrazin-6-yl)amino)ethyl)phenyl)nicotinamide] | ≥ 1000 | 300 to 1000
[2H]C([2H])([2H])n1ncc2ncc(N[C@@H](C)c3cccc(NC(=O)c4cncc(C)c4)c3)nc21 [Compound 184, (S)-5-methyl-N-(3-(1-((1-(methyl-d3)-1H-pyrazolo[3,4-b]pyrazin-6-yl)amino)ethyl)phenyl)nicotinamide] | < 300 | < 300
C[C@H](Nc1cnc2ccoc2n1)c1cc(NC(=O)c2ccc(C(F)(F)F)nc2)ccc1F [Compound 617, (S)-N-(4-fluoro-3-(1-(furo[2,3-b]pyrazin-3-ylamino)ethyl)phenyl)-6-(trifluoromethyl) nicotinamide] | < 300 | < 300
Cc1cc(C(=O)Nc2cccc([C@H](C)Nc3cnc4cnn(C)c4n3)c2)cnc1CN1CCSCC1 [Compound 244, (S)-5-methyl-N-(3-(1-((1-methyl-1H-pyrazolo[3,4-b]pyrazin-6-yl)amino)ethyl)phenyl)-6-(thiomorpholinomethyl) nicotinamide] | < 300 | < 300
C[C@H](Nc1cnc2cnn(C)c2n1)c1cccc(NC(=O)c2cnc3cnn(C)c3c2)c1 [Compound 48, (S)-1-methyl-N-(3-(1-((1-methyl-1H-pyrazolo[3,4-b]pyrazin-6-yl)amino)ethyl)phenyl)-1H-pyrazolo[4,3-b] pyridine-6-carboxamide] | < 300 | < 300

The remaining lines, values ahead:

IC50 [1] [nM] | IC50 [2] [nM] | Compound
≥ 1000 | < 300 | CCn1cc2ncc(N[C@@H](C)c3cc(NC(=O)Cc4ccc(C)nc4)ccc3C)nc2n1 [Compound 664, (S)-N-(3-(1-((2-ethyl-2H-pyrazolo[3,4-b]pyrazin-6-yl)amino)ethyl)-4-methylphenyl)-2-(6-methylpyridin-3-yl) acetamide]
< 300 | < 300 | CCn1cc2ncc(N[C@@H](C)c3cc(NC(=O)c4ccc(CN5CCOCC5)c(Cl)c4)ccc3F)nc2n1 [Compound 427, (S)-3-chloro-N-(3-(1-((2-ethyl-2H-pyrazolo[3,4-b]pyrazin-6-yl)amino)ethyl)-4-fluorophenyl)-4-(morpholinomethyl)benzamide]
< 300 | < 300 | CCn1cc2ncc(N[C@@H](C)c3cc(NC(=O)c4ccc(OC(F)F)nc4)ccc3C)nc2n1 [Compound 511, (S)-6-(difluoromethoxy)-N-(3-(1-((2-ethyl-2H-pyrazolo[3,4-b]pyrazin-6-yl)amino)ethyl)-4-methylphenyl)nicotinamide]
≥ 1000 | < 300 | CCn1cc2ncc(N[C@@H](C)c3cc(NC(=O)Cc4ccc(C5CC5)cn4)ccc3C)nc2n1 [Compound 662, (S)-2-(5-cyclopropylpyridin-2-yl)-N-(3-(1-((2-ethyl-2H-pyrazolo[3,4-b]pyrazin-6-yl)amino)ethyl)-4-methylphenyl) acetamide]
≥ 1000 | ≥ 1000 | CCn1cc2ncc(N[C@@H](C)c3cc(NC(=O)Cc4ccc5c(n4)CCCC5)ccc3C)nc2n1 [Compound 728, (S)-N-(3-(1-((2-ethyl-2H-pyrazolo[3,4-b]pyrazin-6-yl)amino)ethyl)-4-methylphenyl)-2-(5,6,7,8-tetrahydroquinolin-2-yl)acetamide]
≥ 1000 | 300 to 1000 | CCn1cc2ncc(N[C@@H](C)c3cc(NC(=O)Cc4ccc(C5CC5)nc4)ccc3F)nc2n1 [Compound 658, (S)-2-(6-cyclopropylpyridin-3 - yl)-N-(3-(1-((2-ethyl-2H-pyrazolo[3,4-b]pyrazin-6-yl)amino)ethyl)-4-fluorophenyl) acetamide]
300 to 1000 | < 300 | CCn1cc2ncc(N[C@@H](C)c3cccc(NC(=O)c4ccc(CN5CC6(C5)CC6(F)F)c(C)c4)c3)nc2n1 [Compound 461]
< 300 | < 300 | CCn1cc2ncc(N[C@@H](C)c3cccc(NC(=O)c4ccc(CN5CCOCC5)c(Cl)c4)c3)nc2n1 [Compound 416, (S)-3-chloro-N-(3-(1-((2-ethyl-2H-pyrazolo[3,4-b]pyrazin-6-yl)amino)ethyl)phenyl)-4-(morpholinomethyl)benzamide]

From patent publication US20230102554A1 (GB002, INC., priority 2019, published 2023)
